The record followed here is US7105539B2, “Derivatives of succinic and glutaric acids and analogs thereof useful as inhibitors of phex” (Enobia Pharma, priority 2002, dated 2006).

One assay deals with T1, sPHEX (Homo sapiens, UniProt P78562).
T1 construct: The soluble form of the metallopeptidase PHEX (sPHEX) was purified to homogeneity; made in house
T1 sequence (P78562 53-749 limits assumed): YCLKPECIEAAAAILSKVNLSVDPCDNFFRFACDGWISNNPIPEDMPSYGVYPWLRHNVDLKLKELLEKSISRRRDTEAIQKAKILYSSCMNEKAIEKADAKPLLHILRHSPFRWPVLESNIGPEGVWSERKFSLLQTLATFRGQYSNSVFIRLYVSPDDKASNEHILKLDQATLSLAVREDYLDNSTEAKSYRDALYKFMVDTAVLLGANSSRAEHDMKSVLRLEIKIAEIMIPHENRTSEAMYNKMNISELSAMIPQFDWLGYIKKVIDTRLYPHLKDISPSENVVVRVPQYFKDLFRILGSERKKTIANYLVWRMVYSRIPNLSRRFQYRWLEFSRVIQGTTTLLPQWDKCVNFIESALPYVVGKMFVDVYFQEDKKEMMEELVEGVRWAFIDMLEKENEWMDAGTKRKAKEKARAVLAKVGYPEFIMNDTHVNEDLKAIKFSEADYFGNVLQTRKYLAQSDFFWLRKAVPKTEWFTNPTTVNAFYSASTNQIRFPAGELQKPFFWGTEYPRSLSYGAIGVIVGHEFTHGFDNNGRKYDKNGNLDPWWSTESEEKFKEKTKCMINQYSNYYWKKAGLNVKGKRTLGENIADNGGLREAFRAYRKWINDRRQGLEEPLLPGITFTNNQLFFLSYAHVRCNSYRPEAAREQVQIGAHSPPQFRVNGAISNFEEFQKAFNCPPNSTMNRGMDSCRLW
Briefly: Protection of PHEX substrate PTHrP107-139 from sPHEX degradation (RP-HPLC). In kind it is biochemical. The conditions noted are these: 1×10^−5M inhibitor, 1.0 μg sPHEX, 30 min, 37° C.; without inhibitor approximately 75% degraded. As for the experimental part: In general, in order to show inhibition of sPHEX, the enzyme is incubated in the absence or the presence of the inhibiting compound, and a substrate is added in conditions that are suitable for sPHEX enzymatic activity. Hydrolysis of the substrate in the absence or the presence of the inhibiting compound is monitored.
For example, 1.0 μg of purified sPHEX was first incubated at 37° C. for 15 min with or without 1×10^−5M of compound MH-2-64C (FIG. 1) in 90 μl 50 mM MES (2-(N-morpholino)ethanesulfonic acid) pH 6.5, 150 mM NaCl. Then, 2.5 μg of peptide PTHrP107-139 in 10 μl of the same buffer were added and the incubation continued for 30 min. The reaction mixture also contained 1.3 μg of the amino acid Phe which was used as an internal standard. After the incubation period, the reaction was stopped by the addition of EDTA to a final concentration of 5 mM. Detection of cleavage products was performed by reverse phase high performance liquid chromatography (RP-HPLC) on a C18 μBondapak™ analytical column (Waters, Mississauga, ON, Canada) with a UV detector set at 220 nm. […] Results were quantified by comparing the area under the undigested peak of PTHrP107-139, after normalization for the amount of Phe present in the sample. […]

The subject of another assay is rat mandibular defect. Description: Bone lesion repair in rat mandibular defect model (hydroxyapatite particles soaked in inhibitor). In kind it is in vivo. The following applies: for bone formation (scanning electron microscopy, % of total defect area): 14 days healing. As for the experimental part:
Osteogenic properties of PHEX inhibitors can be shown in a model of rat mandibular defect. For example, a 2 mm size bone defect was created in the rat mandible as described previously (Vu et al., 1999). Rats were anesthetized and the vestibular surface of the right mandibular ramus was exposed as follow: an incision was made through the skin along an imaginary line forming a 90° angle with the lower lip to access the muscle layer. A scalpel blade was used to make an incision parallel to the fibers of the deep portion of masseter muscle, about 2 mm posterior to the facial artery (largest branch of the external carotid), in the portion where it gives rise to the labial mandibular artery. The periosteum was elevated and the underlying bony surface exposed. A 2 mm×2 mm bony window was drilled between the second and third molar using a slow-speed dental drill with a carbide round burr size 1.4 mm (Brasseler) and a drill size 2 mm (Straumann Canada Ltd). Saline irrigation was used during the drilling. Porous hydroxyapatite particles (Fin-Ceramica Faenza s.r.l.) with pore size ranged from 450 to 600 μm were accommodated in the bony hole and pushed into it. The particles had been incubated previously in solutions of varying concentrations of PHEX inhibitor or vehicle for 16 to 24 hours at 4° C. Once the bony window was filled the lesion was covered with a membrane of hydroxyapatite (Fin-Ceramica Faenza s.r.l.) which was fixed to the surrounding bone surface with topical tissue adhesive. The muscle fibers were carefully repositioned on the mandible and sutured with absorbable surgical sutures (Chromic Gut, Ethicon Inc.). The skin was sutured for total coverage with silk sutures (Sherwood Davis & Geck, Wayne). After 7 days of treatment the bone lesion was exposed and varying concentrations of PHEX inhibitor or vehicle was reapplied to hydroxyapatite particles. Treatment was continued for another 7 days.
After the 14 day healing period, bone formation at the defect was evaluated by scanning electron microscopy and microcomputed tomography. Animals were sacrificed by intravascular perfusion through the left ventricle with 4% paraformaldehyde and 0.1% glutaraldehyde solution. Treated hemimandibles were taken, immersed in the fixative overnight at 4° C. then washed and kept in 0.1 M cacodylate buffer pH 8.0 until analysis. Specimens for quantification by scanning electron microscopy were dehydrated in a graded alcohol series and embedded in LR White resin (Marivac) for further sectioning along their longitudinal axis. […] Amount of bone tissue present in the sections was quantified by manual tracing using the MOP-3 system (Carl Zeiss) and was expressed as a percentage of the total defect area. […]

As to `O=C(O)CC(CC(=O)NO)C(=O)NCCc1ccc(-c2ccccc2)cc1` (centres unmarked) [Example 126, 3-(2-Biphenyl-4-yl-ethylcarbamoyl)-4-hydroxycarbamoyl-butyric acid], the “degradation of PTHrP107-139 by sPHEX” value at sPHEX is “fully prevented”. The “bone formation (scanning electron microscopy, % of total defect area)” value with rat mandibular defect (1×10^−5 M on hydroxyapatite particles, compared to saline) is reported as “reduced significantly”; with rat mandibular defect (lower concentrations on hydroxyapatite particles), “significantly stimulated”. In the assay on rat mandibular defect (high inhibitor dose, one representative specimen), the “bone formation (microcomputed tomography 3D reconstruction)” value is on record as “reduced bone formation”. Besides, in the assay with rat mandibular defect (low dose of inhibitor vs particles soaked in saline, one representative specimen), the “bone around particles (microcomputed tomography 3D reconstruction)” value is on record as “more bone”.
